≈ marks a conversion by molar mass, not a printed value. Read-outs that look alike come from different tables or passages of the source. Residues, ends and D or L forms follow the SMILES beside them.
Tests used:
[1] = system: P. aeruginosa FADDI-PA025; format: cell-based, Pseudomonas aeruginosa; conditions: FADDI-PA025
Summary of the method: (§1)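 MICs were determined by broth microdilution in cation-adjusted Mueller–Hinton broth (CaMHB), with clinical isolates tested alongside ATCC strains.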

[2] = system: P. aeruginosa FADDI-PA038; format: cell-based, Pseudomonas aeruginosa; conditions: FADDI-PA038
Summary of the method: as §1

[3] = system: MDR clinical isolates of P. aeruginosa (n = 213, 55 carbapenem-resistant); format: cell-based, Pseudomonas aeruginosa
Summary of the method: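 Susceptibility: microdilution MIC in CaMHB.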

P. aeruginosa ATCC 27853 = format: cell-based, Pseudomonas aeruginosa; conditions: ATCC 27853
Summary of the method: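 Read-out is the minimum inhibitory concentration, obtained by serially diluting compound in cation-adjusted Mueller–Hinton medium and exposing each isolate in microdilution format.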

Swiss mice, kidney = test: Nephrotoxicity in mice (kidney histopathology); format: in vivo, mouse
Summary of the method: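 Female Swiss mice (7-week-old, 22–28 g) received lipopeptides in saline either s.c. at 12 mg/kg ×6 every 2 h (total 72 mg/kg, n = 3) or i.p. at 20 or 25 mg/kg ×6 every 2 h (total 120 mg/kg, n = 6; 150 mg/kg, n = 3). Right kidney collected 20 h after last dose, fixed in 10% buffered formalin (pH 7.4), histology scored blinded.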

A. baumannii AB5075 = test: Transcriptomic analysis (RNA-Seq) of bacteria; format: cell-based, Acinetobacter baumannii; conditions: for logFC (Differential gene expression for all genes), Geneid ABUW_RS00005 / logFC (Differential gene expression for all genes), Geneid ABUW_RS00020 / logFC (Fold change), gene ABUW_RS00010 / logFC (Fold change), gene ABUW_RS00030 / logFC (Fold change), gene ABUW_RS00035 / logFC (Fold change), gene recF (ABUW_RS00015) / 4h_1h logFC (Differential gene expression for all genes), Geneid ABUW_RS00005 / 4h_1h logFC (Differential gene expression for all genes), Geneid ABUW_RS00010 / 4h_1h logFC (Differential gene expression for all genes), Geneid ABUW_RS00015 / 4h_1h logFC (Differential gene expression for all genes), Geneid ABUW_RS00020: RNA-Seq A. baumannii AB5075; for log2FC, gene ABUW_RS01945 (acyl-CoA thioesterase II) / log2FC, gene ABUW_RS02545 (acyl-CoA thioesterase) / log2FC, gene ABUW_RS05045 (acyl-CoA thioesterase) / log2FC, gene ABUW_RS17575 (acyl-CoA thioesterase): pathway Fatty Acid and Lipid Degradation; for 4h_1h logFC (Differential gene expression for all genes), Geneid ABUW_RS00005 / 4h_1h logFC (Differential gene expression for all genes), Geneid ABUW_RS00010 / 4h_1h logFC (Differential gene expression for all genes), Geneid ABUW_RS00015 / 4h_1h logFC (Differential gene expression for all genes), Geneid ABUW_RS00020: 4h vs 1h
Procedure: Mid-log phase A. baumannii AB5075 (~10^8 CFU/mL) in CaMHB was treated with colistin (2 and 8 μg/mL), F287, F319 or F365 (equimolar concentration to colistin) for 1 and 4 h. Total RNA was extracted using TRIzol Reagent (Invitrogen, USA) and RNeasy Mini Kit (Qiagen, Germany). Quality check of RNA samples was conducted with NanoDrop (Thermo Fisher Scientific, USA) and Agilent 2100 Bioanalyzer (Agilent Technologies, USA) for sequencing (150 bp paired-end) at Genewiz (Shanghai, China). Raw reads were aligned to A. baumannii AB5075 genome (GCF_000963815, https://www.ncbi.nlm.nih.gov/assembly/GCF_000963815.1/) using subread-aligner (subread 2.0.1) and summarized by featureCounts (subread 2.0.1). Principal component analysis (PCA) was conducted with mixOmics 6.14.1 in R. Differentially expressed genes were determined using limma 3.46.0 with a combination of fold change ≥ 2 and false discovery rate (FDR, by Benjamini–Hochberg algorithm) adjusted P-value ≤ 0.05 (n = 3). Enrichment analysis of gene differential expression in AB5075 was conducted using BioCyc (A. baumannii AB5075, version 25.5). UpSetR 1.4.0, ComplexHeatmap 2.6.2 and circlize 0.4.13 were used for data visualization. Raw data were deposited in Short Reads Archive (SRA) database under accession numbers SRR15235669-SRR15235725.

[4] = MDR clinical isolates of (n = 213, 55 carbapenem-resistant)

## CCCCCCCC(=O)N[C@@H](CCN)C(=O)N[C@H](C(=O)N[C@@H](CN)C(=O)N[C@H]1CCNC(=O)[C@H]([C@@H](C)O)NC(=O)[C@H](CCN)NC(=O)[C@H](CCN)NC(=O)[C@H](CC)NC(=O)[C@@H](CC(C)C)NC(=O)[C@H](CCN)NC1=O)[C@@H](C)O [Lipopeptide F287] (HELM PEPTIDE1{[CCCCCCCC(=O)[*:2]].[Dab].T.[NC[C@H](N[*:1])C(=O)[*:2]].[Dab].[Dab].[dL].[Abu].[Dab].[Dab].T}$PEPTIDE1,PEPTIDE1,5:R3-11:R2$$$V2.0)
[1]
  MIC P. aeruginosa FADDI-PA025: 2 µg/mL (≈ 1.8 µM)
[2]
  MIC P. aeruginosa FADDI-PA038: 0.5 µg/mL (≈ 0.449 µM)
[3]; [4]
  MIC50: 1 µg/mL (≈ 0.898 µM)
  MIC90: 1 µg/mL (≈ 0.898 µM)
[3]; isolates with MIC 0.05 μg/mL (so in the source)
  Number of isolates: 0
[3]; isolates with MIC 0.125 μg/mL (so in the source)
  Number of isolates: 0
[3]; isolates with MIC 0.25 μg/mL (so in the source)
  Number of isolates: 7
[3]; isolates with MIC 0.5 μg/mL (so in the source)
  Number of isolates: 26
[3]; isolates with MIC 1 μg/mL (so in the source)
  Number of isolates: 168
[3]; isolates with MIC 2 μg/mL (so in the source)
  Number of isolates: 9
[3]; isolates with MIC 4 μg/mL (so in the source)
  Number of isolates: 0
[3]; isolates with MIC 8 μg/mL (so in the source)
  Number of isolates: 1
[3]; isolates with MIC 16 μg/mL (so in the source)
  Number of isolates: 0
[3]; isolates with MIC 32 μg/mL (so in the source)
  Number of isolates: 2
[3]; isolates with MIC 64 μg/mL (so in the source)
  Number of isolates: 0
[3]; isolates with MIC >64 μg/mL (so in the source)
  Number of isolates: 0
P. aeruginosa ATCC 27853
  MIC P. aeruginosa ATCC 27853: 0.5 µg/mL (≈ 0.449 µM)
  MIC, No Survanta: 1 µg/mL (≈ 0.898 µM)
Swiss mice, kidney; 72 mg/kg/d subcutaneously in six divided doses every 2 h, n = 3
  Kidney histopathology (SQS Score): 0 (SQS 0 = no significant change (overall score, <1))
Swiss mice, kidney; mouse, in vivo
  Kidney histopathology, mice with the SQS score: 3/3
Swiss mice, kidney; mouse, in vivo, ip, 120 mg/kg/day
  Kidney histological damage, mice with the given grade: 2/6
A. baumannii AB5075; H vs Cont, 1h
  logFC (Differential gene expression for all genes), Geneid ABUW_RS00005: -0.2237
  logFC (Differential gene expression for all genes), Geneid ABUW_RS00020: 0.4813
  logFC (Fold change), gene ABUW_RS00010: 0.6329
  logFC (Fold change), gene ABUW_RS00030: -0.7589
  logFC (Fold change), gene ABUW_RS00035: 1.171
  logFC (Fold change), gene recF (ABUW_RS00015): 0.0004857
  log2FC, gene ABUW_RS01945 (acyl-CoA thioesterase II): 0.3471
  log2FC, gene ABUW_RS02545 (acyl-CoA thioesterase): 1.413
  log2FC, gene ABUW_RS05045 (acyl-CoA thioesterase): 0.6077
  log2FC, gene ABUW_RS17575 (acyl-CoA thioesterase): -1.9504
A. baumannii AB5075; H vs Cont, 4h
  logFC (Differential gene expression for all genes), Geneid ABUW_RS00005: -0.2595
  logFC (Differential gene expression for all genes), Geneid ABUW_RS00020: 0.07692
  logFC (Fold change), gene ABUW_RS00010: 1.124
  logFC (Fold change), gene ABUW_RS00030: -1.151
  logFC (Fold change), gene ABUW_RS00035: 1.24
  logFC (Fold change), gene recF (ABUW_RS00015): -1.077
  log2FC, gene ABUW_RS01945 (acyl-CoA thioesterase II): -0.6425
  log2FC, gene ABUW_RS02545 (acyl-CoA thioesterase): 1.263
  log2FC, gene ABUW_RS05045 (acyl-CoA thioesterase): 0.8039
  log2FC, gene ABUW_RS17575 (acyl-CoA thioesterase): -1.276
A. baumannii AB5075; H
  4h_1h logFC (Differential gene expression for all genes), Geneid ABUW_RS00005: -0.6471
  4h_1h logFC (Differential gene expression for all genes), Geneid ABUW_RS00010: 0.4305
  4h_1h logFC (Differential gene expression for all genes), Geneid ABUW_RS00015: -1.349
  4h_1h logFC (Differential gene expression for all genes), Geneid ABUW_RS00020: 0.3991
A. baumannii AB5075; L vs Cont, 1h
  logFC (Differential gene expression for all genes), Geneid ABUW_RS00005: 0.09601
  logFC (Differential gene expression for all genes), Geneid ABUW_RS00020: 0.1731
  logFC (Fold change), gene ABUW_RS00010: 0.3235
  logFC (Fold change), gene ABUW_RS00030: -0.01757
  logFC (Fold change), gene ABUW_RS00035: 0.2853
  logFC (Fold change), gene recF (ABUW_RS00015): 0.06622
  log2FC, gene ABUW_RS01945 (acyl-CoA thioesterase II): 0.394
  log2FC, gene ABUW_RS02545 (acyl-CoA thioesterase): 0.4759
  log2FC, gene ABUW_RS05045 (acyl-CoA thioesterase): -0.04078
  log2FC, gene ABUW_RS17575 (acyl-CoA thioesterase): 0.9551
A. baumannii AB5075; L vs Cont, 4h
  logFC (Differential gene expression for all genes), Geneid ABUW_RS00005: 0.1326
  logFC (Differential gene expression for all genes), Geneid ABUW_RS00020: -0.2281
  logFC (Fold change), gene ABUW_RS00010: 0.09364
  logFC (Fold change), gene ABUW_RS00030: 0.3636
  logFC (Fold change), gene ABUW_RS00035: 0.2169
  logFC (Fold change), gene recF (ABUW_RS00015): 0.1608
  log2FC, gene ABUW_RS01945 (acyl-CoA thioesterase II): -0.1224
  log2FC, gene ABUW_RS02545 (acyl-CoA thioesterase): -0.4528
  log2FC, gene ABUW_RS05045 (acyl-CoA thioesterase): 0.3557
  log2FC, gene ABUW_RS17575 (acyl-CoA thioesterase): -0.4747
A. baumannii AB5075; L
  4h_1h logFC (Differential gene expression for all genes), Geneid ABUW_RS00005: -0.01752
  4h_1h logFC (Differential gene expression for all genes), Geneid ABUW_RS00010: -0.721
  4h_1h logFC (Differential gene expression for all genes), Geneid ABUW_RS00015: 0.1845
  4h_1h logFC (Differential gene expression for all genes), Geneid ABUW_RS00020: -0.0476
